Here are results for three molecules from patent publication US20180066070A1, “ACETYLATED PCSK9” (UNIVERSITAT ZURICH, priority 2015, published 2018).

Assay [1] addresses T1, SIRT1 (Homo sapiens, UniProt Q96EB6).
T1 sequence (Q96EB6 1-747): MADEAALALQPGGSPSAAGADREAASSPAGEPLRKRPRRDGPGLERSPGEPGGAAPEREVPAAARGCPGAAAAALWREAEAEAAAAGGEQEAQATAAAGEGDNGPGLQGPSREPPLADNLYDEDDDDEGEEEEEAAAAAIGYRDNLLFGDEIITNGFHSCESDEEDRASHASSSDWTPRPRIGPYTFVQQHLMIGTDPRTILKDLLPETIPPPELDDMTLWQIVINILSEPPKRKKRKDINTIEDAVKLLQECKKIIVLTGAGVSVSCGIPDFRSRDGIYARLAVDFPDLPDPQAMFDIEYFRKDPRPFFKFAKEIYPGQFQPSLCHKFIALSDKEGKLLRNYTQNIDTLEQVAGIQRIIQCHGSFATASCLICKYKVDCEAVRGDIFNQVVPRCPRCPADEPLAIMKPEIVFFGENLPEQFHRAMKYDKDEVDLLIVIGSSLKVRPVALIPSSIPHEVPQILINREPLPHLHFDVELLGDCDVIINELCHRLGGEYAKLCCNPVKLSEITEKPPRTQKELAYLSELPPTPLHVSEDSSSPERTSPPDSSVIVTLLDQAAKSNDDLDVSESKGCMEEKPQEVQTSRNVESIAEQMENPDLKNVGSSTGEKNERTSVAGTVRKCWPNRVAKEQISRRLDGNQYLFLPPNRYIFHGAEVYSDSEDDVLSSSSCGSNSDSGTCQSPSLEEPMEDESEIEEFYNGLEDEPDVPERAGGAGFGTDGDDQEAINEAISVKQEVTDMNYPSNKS
As to the kind of experiment: Fluorogenic peptide deacetylation assay. The class given is biochemical. To be noted: increasing concentrations of SRT1720 (1 μM, 10 μM, 100 μM, 1 mM), 1 μg SIRT1, acetyl-Lys421 PCSK9-AMC peptide, compared to negative and positive controls (FIG. 4). The protocol: To analyse the deacetylation activity of SIRT1 on PCSK9, an acetylated PCSK9 peptide was designed with acetylated lysine 421 (Lys421)-tagged to an AMC fluorophore. The acetyl-PCSK9-AMC peptide was dissolved in DMSO and incubated with 1 μg SIRT1 with 1 μM, 10 μM, 100 μM and 1 mM SIRT1 activator SRT1720 in the deacetylation assay buffer containing 50 mM Tris-HCl [pH8.0], 1 mM MgCl2, 125 mM NaCl, 2.5 mM potassium chloride and 500 μM NAD+. Reactions were allowed to proceed for an incubation period of 1 hr at 37° C. Prior to quenching the reaction, 2 mM nicotinamide was added to 1× developing buffer (BML-KI176-1250, Enzo Lifesciences) in the deacetylation assay buffer (50 mM Tris-HCl [pH8.0], 1 mM MgCl2, 125 mM NaCl, 2.5 mM potassium chloride). At each time point, 50 μL of the reaction was removed and mixed with 50 μL of the developer solution. The quenched samples were kept at 37° C. for 45 min prior to fluorescence reading. The release of the fluorescent AMC was measured using a Tecan M200 PRO fluorometric plate reader with an excitation 360 nm and detection of emitted light in the range of […]. All reactions were normalized to control reactions in the absence of β-NAD (Ffinal=F+NAD−F-NAD).

The target of assay [2] is T2, SIRT1 (Mus musculus, UniProt Q923E4).
T2 construct: host or cells: ApoE-/- mice (endogenous protein of the animal)
T2 sequence (Q923E4 1-737): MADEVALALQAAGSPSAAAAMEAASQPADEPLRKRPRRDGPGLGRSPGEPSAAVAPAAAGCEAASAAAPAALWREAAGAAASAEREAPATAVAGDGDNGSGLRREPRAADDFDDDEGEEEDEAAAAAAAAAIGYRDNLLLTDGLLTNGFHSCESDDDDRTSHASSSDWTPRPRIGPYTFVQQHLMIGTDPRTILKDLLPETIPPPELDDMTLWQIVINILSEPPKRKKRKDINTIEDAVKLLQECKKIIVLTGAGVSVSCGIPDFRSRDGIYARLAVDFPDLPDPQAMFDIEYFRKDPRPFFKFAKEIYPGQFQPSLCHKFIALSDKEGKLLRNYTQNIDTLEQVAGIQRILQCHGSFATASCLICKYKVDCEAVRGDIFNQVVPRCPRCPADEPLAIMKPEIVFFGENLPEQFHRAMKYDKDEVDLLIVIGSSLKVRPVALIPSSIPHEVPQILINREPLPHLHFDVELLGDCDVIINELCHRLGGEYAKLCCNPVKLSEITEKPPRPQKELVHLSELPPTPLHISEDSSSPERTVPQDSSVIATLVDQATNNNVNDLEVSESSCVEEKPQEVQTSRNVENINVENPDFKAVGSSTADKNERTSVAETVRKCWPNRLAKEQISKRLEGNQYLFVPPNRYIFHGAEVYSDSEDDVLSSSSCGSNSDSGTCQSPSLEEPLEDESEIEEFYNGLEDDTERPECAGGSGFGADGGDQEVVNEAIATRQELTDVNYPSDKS
To be noted: ApoE-/- mice; cited from earlier work.

Another assay has as its system RAW 264.7 macrophages. As to the kind of experiment: Activity of acetylated vs deacetylated recombinant PCSK9 on RAW 264.7 macrophages (western blot for LDLR, PCSK9). The class given is cell-based, murine. To be noted: recombinant PCSK9 pretreated with pCAF and acetyl-CoA vs SIRT1 and NAD+, 15 mins (FIG. 7). The protocol:
Recombinant PCSK9 pretreated with SIRT1 and NAD+ or pCAF and acetyl-CoA were added on RAW 264.7 macrophages for 15 mins and lysed, separated by SDS-PAGE and blotted for LDLR, PCSK9 and b-actin. Representative bar graphs of LDLR, PCSK9 normalized to b-actin and PCSK9 expression normalized to LDLR expression.
Human HepG2 hepatocytes (American Type Culture Collection, Manassas, Va.) and murine RAW 264.7 cells (Mouse leukaemic monocyte macrophage cell line) were cultured in DMEM containing 10% fetal bovine serum (v/v). AML12 mouse hepatoma cells were cultured in a 1:1 (v/v) mixture of DMEM and Ham's F12 medium supplemented with insulin (5 μg ml-1), transferrin (5 μg ml-1), selenium (5 ng ml-1), dexamethasone (40 ng ml-1), and 10% fetal bovine serum (v/v). Where indicated, AML12 cells were exposed to 10 μM SRT3025 in 1% DMSO (v/v). The cells were maintained in a humidified atmosphere with 5% CO2 at 37° C.
Substrate protein, PCSK9 was incubated with 2 μg of recombinant pCAF and 50 μM acetyl-CoA in 20 μL of acetylation buffer (250 mM Tris-HCl [pH9.0], 20 mM MgCl2, 250 mM NaCl, 2.5 mM DTT). Reaction mixtures were incubated at 37° C. for 1 hour. Reaction was stopped by freezing. […] The reactions were analyzed by western blotting using anti-PCSK9 antibody (Abcam) to verify loading and anti-acetyl lysine (Cell signalling) to verify acetylation.

Regarding `O=C(Nc1ccccc1-c1cn2c(CN3CCNCC3)csc2n1)c1cnc2ccccc2n1` [SRT1720], the “fluorescence caused by deacetylation of fluorogenic PCSK9 peptide” value at SIRT1 [1] is “increase in fluorescence”.
On to `COCCCc1sc(-c2ccccc2)nc1C(=O)Nc1ccccc1-c1nc2cc(CN3CCCC3)cnc2s1` [SRT3025], for which, at SIRT1 [2], the LDL-cholesterol entry is “reducing LDL-cholesterol”, the PCSK9 secretion entry is given as “reduction in PCSK9 secretion” and the atherosclerosis entry was “protects against atherosclerosis”.
On to “acetyl-PCSK9: Recombinant PCSK9 pretreated with pCAF and acetyl-CoA”, for which, in the assay with RAW 264.7 macrophages, the “activity of PCSK9 (LDLR, PCSK9 expression normalized to b-actin)” value is on record as “more active”.
